In US20240261234A1, “USE OF C[…] THE TREATMENT OF NOCTURNAL SNORING” (GW Research Limited, priority 2014, published 2024):
Where “and” joins values, the source holds several entries; their conditions need not be identical. Equal values may be shown once. Entries after “also recorded” stand apart in the source; their conditions may differ.

Key:
[1] = Solubility of the drug substance in water; type: physicochemical
Description: The drug substance, CBD is insoluble in water. Sesame oil was selected as an excipient to solubilize the drug substance.

[2] = system: seizures in treatment-resistant epilepsy characterised by Doose Syndrome; experiment: Expanded access compassionate use program: seizure frequency with CBD therapy in Doose Syndrome; type: in vivo, children and young adults
Description: (§1) Of 137 children and young adults with severe, childhood onset treatment-resistant epilepsy (TRE), six suffered from Doose Syndrome. These subjects were tested with a highly purified extract of cannabidiol (CBD) obtained from a cannabis plant. The participants in the study were part of an expanded access compassionate use program for CBD.
(§2) All of these patients with a diagnosis of Doose Syndrome presented with multiple seizure types which included tonic-clonic seizures; myoclonic seizures; atonic seizures; absence seizures; myoclonic-absence seizures; and tonic seizures. In addition nocturnal snoring was encountered by one of the patients in the study.
Both patients entered a baseline period of 4 weeks when parents/caregivers kept prospective seizure diaries, noting all countable motor seizure types.
(§3) The patients then received a highly purified CBD extract (greater than 98% CBD w/w) in sesame oil, of known and constant composition, at a dose of 5 mg/kg/day in addition to their baseline anti-epileptic drug (AED) regimen.
Laboratory testing for hematologic, liver, kidney function, and concomitant AED levels was performed at baseline, and after CBD therapy.
All patients were taking at least two concomitant anti-epileptic drugs. These included clobazam; diazepam; lacosamide; lamotrigine; levetiracetam; lorazepam; nordiazepam; n-desmethylclobazam; phenytoin; valproic acid; zonisamide. The average number of concomitant antiepileptic drugs being taken was 2.7. The majority took either clobazam and/or valproic acid.
There were 6 children and young adult patients who received at least 3 months of treatment all of whom suffered from treatment-resistant epilepsy which is characterised by Doose Syndrome.
The change from baseline in the number of different seizures and total number of seizures after 16 weeks treatment are summarized in Table 4 below.

[3] = system: nocturnal snoring in a patient with Doose Syndrome; experiment: Expanded access compassionate use program: nocturnal snoring with CBD therapy; type: in vivo, children and young adults
Description: as §1, §2, §3
Table 5 below describes the data that was collated for the other seizure types including nocturnal snoring.

apnea hypopnea index = conditions: short term; small trial; cited from earlier work
[4] = absence seizures (n = 3), Doose Syndrome patients
[5] = atonic seizures (n = 2), Doose Syndrome patients
[6] = tonic-clonic seizures (n = 5), Doose Syndrome patients
[7] = nocturnal snoring (n = 1), Doose Syndrome patient

Structure (SMILES)	Solubility in water [1]	Patients with <50% reduction in absence seizures [2, 4] [%]	Patients with >50% reduction in absence seizures [2, 4] [%]	Number of Doose syndrome patients with a decrease in total seizure frequency ([2]; after 3 months of therapy, of 6 patients)	Patients with <50% reduction in atonic seizures [2, 5] [%]	Patients with >50% reduction in atonic seizures [2, 5] [%]	Effect on seizure sub-types associated with Doose Syndrome (in words) ([2]; patients not responding well to existing AED)	Change in baseline (%) in total seizure frequency ([2]; per subject (subjects 1-6, Doose Syndrome), after 16 weeks treatment, CBD 5 up to 25 mg/kg/day added to baseline AED)	>50% reduction in seizures (total seizures) ([2]; per subject (subjects 1-6, Doose Syndrome), after 16 weeks treatment, Yes/No)	Patients with <50% reduction in tonic-clonic seizures [2, 6] [%]	Patients with >50% reduction in tonic-clonic seizures [2, 6] [%]	Effect on occurrence of nocturnal snoring (in words) ([3]; a child with Doose Syndrome)	Patients with <50% reduction in nocturnal snoring [3, 7] [%]	Patients with >50% reduction in nocturnal snoring [3, 7] [%]	Effect on apnea hypopnea index (apnea hypopnea index)
C=C(C)[C@@H]1CCC(C)=C[C@H]1c1c(O)cc(CCCCC)cc1O [CBD, Cannabidiol]	insoluble	0	100	five	50	50	very effective treatment for all of the seizure sub-types; also recorded: significantly reduces the number of seizures	−100.0% (2×) and 65.8% and −67.4% and −68.7% and −92.0%	Yes (5×) and No	20	80	completely eliminate the occurrence of nocturnal snoring	0	100	–
CCCCCc1cc(O)c2c(c1)OC(C)(C)[C@@H]1CCC(C)=C[C@@H]21 [dronabinol, Tetrahydro- cannabinol]	–	–	–	–	–	–	–	–	–	–	–	–	–	–	able to reduce the apnea hypopnea index
